Measurements reported in patent US10329289B2, “6,7-dihydro-5H-pyrrolo[3,4-B]pyridin-5-one allosteric modulators of the M4 muscarinic acetylcholine receptor” (Merck Sharp & Dohme Corp., priority 2015, dated 2019).

target: T1, human M4 muscarinic acetylcholine receptor (Homo sapiens, UniProt P08173); assay: human FLIPR-based M4 PAM assay (Ca2+ mobilization, CHO-K1 cells with human M4 receptor and Gαqi5); format: cell-based; conditions: acetylcholine at 20% of maximum response, read-out: M4 PAM IP
T1 construct: expressed in transfected cells; host or cells: CHO-K1
T1 sequence (P08173 1-479): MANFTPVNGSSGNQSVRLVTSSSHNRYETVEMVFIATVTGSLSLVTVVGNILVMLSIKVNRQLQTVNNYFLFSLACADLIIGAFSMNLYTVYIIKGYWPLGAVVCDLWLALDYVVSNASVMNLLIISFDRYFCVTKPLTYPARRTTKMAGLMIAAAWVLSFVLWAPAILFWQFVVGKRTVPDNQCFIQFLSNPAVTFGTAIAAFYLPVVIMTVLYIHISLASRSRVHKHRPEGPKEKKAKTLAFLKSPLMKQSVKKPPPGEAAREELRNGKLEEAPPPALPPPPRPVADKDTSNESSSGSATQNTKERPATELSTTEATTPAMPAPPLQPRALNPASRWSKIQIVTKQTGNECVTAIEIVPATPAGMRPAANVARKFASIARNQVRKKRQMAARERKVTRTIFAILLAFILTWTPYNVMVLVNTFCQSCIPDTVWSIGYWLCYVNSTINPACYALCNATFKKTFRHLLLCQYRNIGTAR
How it was run: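 Calcium-mobilization (FLIPR) readout in dye-loaded CHO-K1 cells co-expressing human M4 receptor and Gαqi5. Potentiation measured against acetylcholine at a concentration giving 20% of maximal response, with an optional 70% addition; the reported value is the curve inflection point from a 4-parameter logistic fit.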

SMILES | EC50
Cc1cc2c(nc1N1CC[C@@H](Oc3ccc4c(c3)C(=O)N(C)C4)[C@@H](F)C1)CNC2=O [Example 163, 2-((3S,4R)-3-fluoro-4-((2-methyl-3-oxoisoindolin-5-yl)oxy)piperidin-1-yl)-3-methyl-6,7-dihydro-5H-pyrrolo[3,4-b]pyridin-5-one] | 277 nM
Cc1cc2c(nc1N1CCC(Oc3ccc4[nH]nnc4c3)CC1)CNC2=O [Example 163A, 2-(4-((1H-benzo[d][1,2,3]triazol-5-yl)oxy)piperidin-1-yl)-3-methyl-6,7-dihydro-5H-pyrrolo[3,4-b]pyridin-5-one] | 1140 nM
COc1ccc(O[C@@H]2CCN(c3nc4c(cc3C)C(=O)NC4)C[C@@H]2F)cn1 [Example 164, 2-((3S,4R)-3-fluoro-4-((6-methoxypyridin-3-yl)oxy)piperidin-1-yl)-3-methyl-6,7-dihydro-5H-pyrrolo[3,4-b]pyridin-5-one] | 82 nM
CCc1cc2c(nc1N1CC[C@@H](Oc3cnc4c(c3)COC4)[C@@H](F)C1)CNC2=O [Example 164A, 2-((3S,4R)-4-((5,7-dihydrofuro[3,4-b]pyridin-3-yl)oxy)-3-fluoropiperidin-1-yl)-3-ethyl-6,7-dihydro-5H-pyrrolo[3,4-b]pyridin-5-one] | 202 nM
Cc1cc2c(nc1N1CCC(Oc3ccc4[nH]ncc4c3)CC1)CNC2=O [Example 167, 2-(4-((1H-indazol-5-yl)oxy)piperidin-1-yl)-3-methyl-6,7-dihydro-5H-pyrrolo[3,4-b]pyridin-5-one] | 14 nM
Cc1cc2c(nc1N1CCC(Oc3ccc(OCCN(C)C)nc3)CC1)CNC2=O [Example 168, 2-(4-((6-(2-(dimethylamino)ethoxy)pyridin-3-yl)oxy)piperidin-1-yl)-3-methyl-6,7-dihydro-5H-pyrrolo[3,4-b]pyridin-5-one] | 119 nM
Cc1cc2c(nc1N1CCC(Oc3ccc(OCC(C)(C)N)nc3)CC1)CNC2=O [Example 169, 2-(4-((6-(2-amino-2-methylpropoxy)pyridin-3-yl)oxy)piperidin-1-yl)-3-methyl-6,7-dihydro-5H-pyrrolo[3,4-b]pyridin-5-one] | 183 nM
Cc1cc2c(nc1N1CCC(Oc3ccc(OCCO)nc3)CC1)CNC2=O [Example 170, 2-(4-((6-(2-hydroxyethoxy)pyridin-3-yl)oxy)piperidin-1-yl)-3-methyl-6,7-dihydro-5H-pyrrolo[3,4-b]pyridin-5-one] | 40 nM
COCCOc1ccc(OC2CCN(c3nc4c(cc3C)C(=O)NC4)CC2)cn1 [Example 171, 2-(4-((6-(2-methoxyethoxy)pyridin-3-yl)oxy)piperidin-1-yl)-3-methyl-6,7-dihydro-5H-pyrrolo[3,4-b]pyridin-5-one] | 79 nM
Cc1cc2c(nc1N1CCC(OCC3CCC3)CC1)CNC2=O [Example 172, 2-(4-(cyclobutylmethoxy)piperidin-1-yl)-3-methyl-6,7-dihydro-5H-pyrrolo[3,4-b]pyridin-5-one] | 125 nM
Cc1cc2c(nc1N1CCC(Oc3ccc(OCCN4CCC4)nc3)CC1)CNC2=O [Example 173, 2-(4-((6-(2-(azetidin-1-yl)ethoxy)pyridin-3-yl)oxy)piperidin-1-yl)-3-methyl-6,7-dihydro-5H-pyrrolo[3,4-b]pyridin-5-one] | 313 nM
CC(=O)NCCOc1ccc(OC2CCN(c3nc4c(cc3C)C(=O)NC4)CC2)cn1 [Example 174, N-(2-((5-((1-(3-methyl-5-oxo-6,7-dihydro-5H-pyrrolo[3,4-b]pyridin-2-yl)piperidin-4-yl)oxy)pyridin-2-yl)oxy)ethyl)acetamide] | 45 nM
Cc1cc2c(nc1N1CCC(OCC3CCCC3)CC1)CNC2=O [Example 175, 2-(4-(cyclopentylmethoxy)piperidin-1-yl)-3-methyl-6,7-dihydro-5H-pyrrolo[3,4-b]pyridin-5-one] | 139 nM
Cc1cc2c(nc1N1CCC(OCC3(C)CC3)CC1)CNC2=O [Example 176, 3-methyl-2-(4-((1-methylcyclopropyl)meth-oxy)piperidin-1-yl)-6,7-dihydro-5H-pyrrolo[3,4-b]pyridin-5-one] | 39 nM
Cc1cc2c(nc1N1CCC(OCC3CCOC3)CC1)CNC2=O (centres unmarked) [Example 177, 3-methyl-2-(4-((tetrahydrofuran-3-yl)methoxy)piperidin-1-yl)-6,7-dihydro-5H-pyrrolo[3,4-b]pyridin-5-one] | 1810 nM
Cc1cc2c(nc1N1CCC(OCC3(C)CCCC3)CC1)CNC2=O [Example 178, 3-methyl-2-(4-((1-methylcyclopentyl)meth-oxy)piperidin-1-yl)-6,7-dihydro-5H-pyrrolo[3,4-b]pyridin-5-one] | 2480 nM
Cc1cc2c(nc1N1CCC(OCC3(F)CCCC3)CC1)CNC2=O [Example 180, 2-(4-((1-fluorocyclopentyl)meth-oxy)piperidin-1-yl)-3-methyl-6,7-dihydro-5H-pyrrolo[3,4-b]pyridin-5-one] | 1650 nM

Results, then the molecule that gave them:

EC50 | SMILES
83 nM | Cc1c(N2CC[C@@H](Oc3cnc4c(c3)COC4)[C@@H](F)C2)nc2c(c1C)C(=O)NC2 [Example 165A, 2-((3S,4R)-4-((5,7-dihydrofuro[3,4-b]pyridin-3-yl)oxy)-3-fluoropiperidin-1-yl)-3,4-dimethyl-6,7-dihydro-5H-pyrrolo[3,4-b]pyridin-5-one]
61 nM | CCc1cc2c(nc1N1CCC(Oc3ccc4c(c3)C[C@H](O)C4)CC1)CNC2=O [Example 166A, (R)-3-ethyl-2-(4-((2-hydroxy-2,3-dihydro-1H-inden-5-yl)oxy)piperidin-1-yl)-6,7-dihydro-5H-pyrrolo[3,4-b]pyridin-5-one]
57 nM | CCc1cc2c(nc1N1CCC(Oc3ccc4c(c3)C[C@@H](O)C4)CC1)CNC2=O [Example 166B, (S)-3-ethyl-2-(4-((2-hydroxy-2,3-dihydro-1H-inden-5-yl)oxy)piperidin-1-yl)-6,7-dihydro-5H-pyrrolo[3,4-b]pyridin-5-one]
188 nM | Cc1cc2c(nc1N1CCC(Oc3ccc4c(c3)C[S+]([O-])C4)CC1)CNC2=O (centres unmarked) [Example 167A, 3-methyl-2-(4-((2-oxido-1,3-dihydrobenzo[c]thio-phen-5-yl)oxy)piperidin-1-yl)-6,7-dihydro-5H-pyrrolo[3,4-b]pyridin-5-one]
180 nM | CCn1cc(OC2CCN(c3nc4c(cc3C)C(=O)NC4)CC2)cn1 [Example 169A, 2-(4-((1-ethyl-1H-pyrazol-4-yl)oxy)piperidin-1-yl)-3-methyl-6,7-dihydro-5H-pyrrolo[3,4-b]pyridin-5-one]
129 nM | Cc1cc2c(nc1N1CCC(Oc3cnn(-c4ccccc4)c3)CC1)CNC2=O [Example 170A, 3-methyl-2-(4-((1-phenyl-1H-pyrazol-4-yl)oxy)piperidin-1-yl)-6,7-dihydro-5H-pyrrolo[3,4-b]pyridin-5-one]
491 nM | Cc1cc2c(nc1N1CC[C@@H](OCC3(C)CC3)C(F)(F)C1)CNC2=O [Example 171A, (R)-2-(3,3-difluoro-4-((1-methylcyclopropyl)meth-oxy)piperidin-1-yl)-3-methyl-6,7-dihydro-5H-pyrrolo[3,4-b]pyridin-5-one]
14 nM | Cc1cc2c(nc1N1CC[C@H](OCC3(C)CC3)C(F)(F)C1)CNC2=O [Example 171B, (S)-2-(3,3-difluoro-4-((1-methylcyclopropyl)meth-oxy)piperidin-1-yl)-3-methyl-6,7-dihydro-5H-pyrrolo[3,4-b]pyridin-5-one]
905 nM | Cc1cc2c(nc1N1CCC(OCC(F)(F)F)CC1)CNC2=O [Example 172A, 3-methyl-2-(4-(2,2,2-trifluoroethoxy)piperidin-1-yl)-6,7-dihydro-5H-pyrrolo[3,4-b]pyridin-5-one]
207 nM | CCc1cc2c(nc1N1CCC(Oc3cncc(C)c3)CC1)CNC2=O [Example 173A, 3-ethyl-2-(4-((5-methylpyridin-3-yl)oxy)piperidin-1-yl)-6,7-dihydro-5H-pyrrolo[3,4-b]pyridin-5-one]
22 nM | Cc1c(N2CC[C@@H](OCC3(C)CC3)[C@H](F)C2)nc2c(c1C)C(=O)NC2 [Example 174A, 2-((3R,4R)-3-fluoro-4-((1-methylcyclopropyl)meth-oxy)piperidin-1-yl)-3,4-dimethyl-6,7-dihydro-5H-pyrrolo[3,4-b]pyridin-5-one]
3100 nM | Cc1cc2c(nc1N1CCC(OCc3ccncc3)CC1)CNC2=O [Example 175A, 3-methyl-2-(4-(pyridin-4-ylmethoxy)piperidin-1-yl)-6,7-dihydro-5H-pyrrolo[3,4-b]pyridin-5-one]
264 nM | CCc1cc2c(nc1N1CCC(OCC3CC3)CC1)CNC2=O [Example 176A, 2-(4-(cyclopropylmethoxy)piperidin-1-yl)-3-ethyl-6,7-dihydro-5H-pyrrolo[3,4-b]pyridin-5-one]
18 nM | Cc1cc2c(nc1N1CC[C@@H](Oc3ccc4c(c3)CCOC4)[C@@H](F)C1)CNC2=O [Example 178A, 2-((3S,4R)-3-fluoro-4-(isochroman-6-yloxy)piperidin-1-yl)-3-methyl-6,7-dihydro-5H-pyrrolo[3,4-b]pyridin-5-one]
18 nM | Cc1cc2c(nc1N1CC[C@@H](Oc3ccc4c(c3)COCC4)[C@@H](F)C1)CNC2=O [Example 178B, 2-((3S,4R)-3-fluoro-4-(isochroman-7-yloxy)piperidin-1-yl)-3-methyl-6,7-dihydro-5H-pyrrolo[3,4-b]pyridin-5-one]
